Data: patent US20260048051A1, “TREATMENT OF INFLAMMATORY BOWEL DISEASE” (Atomwise Inc., priority 2024, published 2026)
Read-outs that look alike come from different tables or passages of the source.

Experiment: Plasma and tissue distribution in SD rats
Type: in vivo
Conditions: for Tissue/Plasma Ratio (AUCinf) / Kp: SD rat; for Kp / AUC(0-t): rat; for Kp: oral, read-out: Tissue/Plasma Ratio (AUCinf); for AUC(0-t): read-out: AUClast; for AUC0-inf: read-out: AUCINF_obs
Description: The following Example describes the methods and data used to evaluate the tissue distribution of TYK2 inhibitors following the administration of either compound 1 or compound 2.
Thirty (30, 15/sex) SD rats supplied by Beijing Vital River Laboratory Animal Technology Co., Ltd. were used in this study. The animals were confirmed to be healthy before being assigned to the study. The room (s) was controlled and monitored for relative humidity (targeted mean range 40% to 70%) and temperature (targeted mean range 20° C. to 26° C.) with 15 or above air changes/hour. The room was on a 12-hour light/dark cycle except when interruptions were necessitated by study activities. Fresh drinking water (reverses osmosis) was available to all animals, ad libitum. Certified animal diet from certified vendor was available to all animals, ad libitum.
Animals were weighed prior to dose administration to calculate the actual dose volume. The body weights were in the range from 245.39 to 276.33 g for males and 182.29 to 215.69 g for females on the first dosing day. The animals in Groups 1 and 2 received a single oral gavage administration of test compound 1. Cage-side observations for the general health condition and appearance of the animal were performed before and after dosing and at each time point of sample collection. Unusual observations were recorded throughout the duration of the study.
The vehicle was 0.5% methyl cellulose (4000 cps) in water. The formulation was prepared according to the following steps. Group 1: 25.95 mg of compound 1 was weighed into a glass vial. 5000 μL of vehicle was added into the vial and stirred for 30 min at 1700 rpm to get a homogenous opaque suspension. 5000 μL of vehicle was added into the vial and stirred for 10 min at 1700 rpm to get a homogenous opaque suspension. 5000 μL+5000 μL+5000 μL+924 μL of vehicle was added into the vial and stirred for 10 min at 1700 rpm to get a homogenous opaque suspension. Group 2: 81.66 mg of compound 1 was weighed into a glass vial. 5000 μL of vehicle was added into the vial and stirred for 30 min at 1700 rpm to get a homogenous opaque suspension. 5000 μL of vehicle was added into the vial and stirred for 10 min at 1700 rpm to get a homogenous opaque suspension. 10 mL+10 mL+10 mL+20 mL+10 mL+10 mL+1580 μL of vehicle was added into the vial and stirred for 10 min at 1700 rpm to get a homogenous opaque suspension.
Blood (about 0.2 mL) was collected at each time point via jugular vein puncture from each study animal. The actual time for each sample collection was recorded. The acceptable deviations on sampling time were ±1 min for the time points pre-dose through 1 hour post-dose, and +5% of the nominal time for time points after 1 hour post-dose.
All blood samples were transferred into commercial tubes containing K2-EDTA. After blood was collected, the samples were placed on wet ice and processed for plasma within 60 minutes of collection by centrifugation at approximately 4° C., 3200×g for 10 minutes, and then quickly frozen over dry ice and kept at −60° C. or lower until LC-MS/MS analysis.
Following terminal blood sample collection, animals were conducted CO2 euthanasia, the chest and abdominal cavities were opened carefully lengthwise using scissors to expose the internal organs in preparation of tissue perfusion. A needle was used to puncture a small hole into the left ventricle of the heart, and then clamped with a hemostat. […] Fluid (cold 1×PBS) was infused until the liver pales (typically 2-3 minutes). Following perfusion, 14 kinds of tissues (spleen, bone marrow, adipose, brain, heart, kidney, liver, lung, skin, small intestine, large intestine, eye, gonads, and bladder) were collected from each animal, respectively.
Each tissue was weighed and homogenized on wet ice using homogenizing buffer (MeOH/15 mM PBS 1:2) at the ratio of 1:9 (1 g tissue with 9 mL buffer). The tissue homogenate was kept at −60° C. or lower until LC-MS/MS analysis. […]

[1] = female, Sprague-Dawley (SD), large intestine, F SD rat, L. Intestine
[2] = female, Sprague-Dawley (SD), F SD rat, Bone Marrow
[3] = female, Sprague-Dawley (SD), F SD rat, Brain
[4] = female, Sprague-Dawley (SD), F SD rat, Eye
[5] = female, Sprague-Dawley (SD), F SD rat, Heart
[6] = female, Sprague-Dawley (SD), F SD rat, Kidney
[7] = female, Sprague-Dawley, F SD rat, Adipose
[8] = female, Sprague-Dawley, F SD rat, Bladder
[9] = female, Sprague-Dawley, F SD rat, Spleen
[10] = female, small intestine, F SD rat, S. Intestine
[11] = male, Sprague-Dawley (SD), large intestine, M SD rat, L. Intestine
[12] = male, Sprague-Dawley (SD), M SD rat, Brain
[13] = male, Sprague-Dawley (SD), M SD rat, Eye
[14] = male, Sprague-Dawley (SD), M SD rat, Heart
[15] = male, Sprague-Dawley (SD), M SD rat, Kidney
[16] = male, Sprague-Dawley, M SD rat, Adipose
[17] = male, Sprague-Dawley, M SD rat, Bladder
[18] = male, Sprague-Dawley, M SD rat, Skin
[19] = male, Sprague-Dawley, M SD rat, Spleen
[20] = male, Sprague-Dawley, M SD rat, Testis
[21] = male, small intestine, M SD rat, S. Intestine

C[C@@H](c1ccc(Nc2cc(Nc3ncc(F)cc3S(C)(=O)=O)ncn2)nc1)N1CC2(COC2)C1 [Compound 2, (S)—N^4-(5-(1-(2-oxa-6-azaspiro[3.3]heptan-6-yl)ethyl)pyridin-2-yl)-N^6-(5-fluoro-3-(methylsulfonyl)pyridin-2-yl)pyrimidine-4,6-diamine]
HL_Lambda_z (F SD rat, Adipose): 2.78 h
HL_Lambda_z (F SD rat, Bladder): 2.37 h
HL_Lambda_z (F SD rat, Bone Marrow): 2.26 h
HL_Lambda_z (F SD rat, Eye): 6.23 h
HL_Lambda_z (F SD rat, Kidney): 2.34 h
HL_Lambda_z (F SD rat, L. Intestine): 4.97 h
HL_Lambda_z (F SD rat, Liver): 2.31 h
HL_Lambda_z (F SD rat, Lung): 2.26 h
HL_Lambda_z (F SD rat, Plasma): 3.20 h
HL_Lambda_z (F SD rat, S. Intestine): 2.06 h
HL_Lambda_z (F SD rat, Skin): 5.71 h
HL_Lambda_z (F SD rat, Spleen): 2.29 h
HL_Lambda_z (M SD rat, Bladder): 2.13 h
HL_Lambda_z (M SD rat, Kidney): 3.28 h
HL_Lambda_z (M SD rat, Plasma): 2.21 h
HL_Lambda_z (M SD rat, S. Intestine): 2.05 h
HL_Lambda_z (M SD rat, Skin): 2.43 h
HL_Lambda_z (M SD rat, Spleen): 2.24 h
Tissue/Plasma Ratio (AUCinf) (Kidney): 13
Tissue/Plasma Ratio (AUCinf) (Large Intestine): 23
Kp (Sprague-Dawley (SD), bone marrow / plasma, Bone Marrow): 9.6
Kp (Sprague-Dawley, adipose, Adipose): 4.5
Kp (Sprague-Dawley, bladder, Bladder): 8.7
Kp (Sprague-Dawley, eye, Eye): 1.2
Kp (Sprague-Dawley, kidney, Kidney): ~13
Kp (Sprague-Dawley, large intestine, Large Intestine): ~23
Kp (Sprague-Dawley, liver, Liver): 8.7
Kp (Sprague-Dawley, lung, Lung): 7.1
Kp (Sprague-Dawley, skin, Skin): 2.5
Kp (Sprague-Dawley, small intestine, Small Intestine): 27
Kp (Sprague-Dawley, spleen, Spleen): 12
AUC(0-t) (female, SD, bone marrow, F SD rat, Bone Marrow): 38700 ng·h/mL
AUC(0-t) (female, SD, lung, F SD rat, Lung): 29400 ng·h/mL
AUC(0-t) (female, SD, ovaries, F SD rat, Ovaries): 4360 ng·h/mL
AUC(0-t) (female, SD, plasma, F SD rat, Plasma): 4120 ng·h/mL
AUC(0-t) (female, SD, skin, F SD rat, Skin): 8430 ng·h/mL
AUC(0-t) (female, SD, small intestine, F SD rat, S. Intestine): 110000 ng·h/mL
Tmax [1]: 120 min
AUC(0-t) (female, Sprague-Dawley (SD), eye, F SD rat, Eye): 4880 ng·h/mL
AUC(0-t) (female, Sprague-Dawley (SD), heart, F SD rat, Heart): 8990 ng·h/mL
AUC(0-t) (female, Sprague-Dawley (SD), kidney, F SD rat, Kidney): 51800 ng·h/mL
AUC(0-t) [1]: 95000 ng·h/mL
Cmax [2]: 3080 ng/mL
Tmax [2]: 30 min
AUC0-inf [2]: 38300 ng·h/mL
Cmax [3]: 104 ng/mL
Tmax [3]: 30 min
Cmax [4]: 700 ng/mL
Tmax [4]: 30 min
AUC0-inf [4]: 4910 ng·h/mL
Cmax [5]: 2500 ng/mL
Tmax [5]: 30 min
Cmax [6]: 9870 ng/mL
Tmax [6]: 30 min
AUC0-inf [6]: 51800 ng·h/mL
AUC(0-t) (female, Sprague-Dawley, adipose, F SD rat, Adipose): 18700 ng·h/mL
AUC(0-t) (female, Sprague-Dawley, bladder, F SD rat, Bladder): 18600 ng·h/mL
AUC(0-t) (female, Sprague-Dawley, spleen, F SD rat, Spleen): 43400 ng·h/mL
Cmax [7]: 4310 ng/mL
Tmax [7]: 30 min
Cmax [8]: 2650 ng/mL
Tmax [8]: 30 min
AUC0-inf [8]: 18600 ng·h/mL
Cmax [9]: 12500 ng/mL
Tmax [9]: 30 min
Cmax [10]: 24800 ng/mL
Tmax [10]: 30 min
AUC0-inf [10]: 130000 ng·h/mL
Tmax (female, F SD rat, Liver): 30 min
AUC0-inf (female, F SD rat, Liver): 35900 ng·h/mL
Cmax (female, F SD rat, Lung): 3070 ng/mL
Tmax (female, F SD rat, Lung): 30 min
AUC0-inf (female, F SD rat, Lung): 29500 ng·h/mL
Cmax (female, F SD rat, Ovaries): 1940 ng/mL
Tmax (female, F SD rat, Ovaries): 30 min
Cmax (female, F SD rat, Plasma): 625 ng/mL
Tmax (female, F SD rat, Plasma): 480 min
AUC0-inf (female, F SD rat, Plasma): 4140 ng·h/mL
Cmax (female, F SD rat, Skin): 1180 ng/mL
Tmax (female, F SD rat, Skin): 30 min
AUC0-inf (female, F SD rat, Skin): 8450 ng·h/mL
AUC(0-t) (male, SD, liver, M SD rat, Liver): 14700 ng·h/mL
AUC(0-t) (male, SD, lung, M SD rat, Lung): 18200 ng·h/mL
AUC(0-t) (male, SD, skin, M SD rat, Skin): 7820 ng·h/mL
Cmax [11]: 7320 ng/mL
Tmax [11]: 480 min
AUC(0-t) (male, Sprague-Dawley (SD), bone marrow, M SD rat, Bone Marrow): 19600 ng·h/mL
AUC(0-t) (male, Sprague-Dawley (SD), brain, M SD rat, Brain): 273 ng·h/mL
AUC(0-t) (male, Sprague-Dawley (SD), heart, M SD rat, Heart): 2880 ng·h/mL
AUC(0-t) (male, Sprague-Dawley (SD), kidney, M SD rat, Kidney): 32600 ng·h/mL
Tmax (male, Sprague-Dawley (SD), M SD rat, Bone Marrow): 30 min
Cmax [12]: 68.9 ng/mL
Tmax [12]: 30 min
Cmax [13]: 535 ng/mL
Tmax [13]: 156 min
Cmax [14]: 2520 ng/mL
Tmax [14]: 30 min
Cmax [15]: 9620 ng/mL
Tmax [15]: 30 min
AUC0-inf [15]: 32600 ng·h/mL
Cmax (male, Sprague-Dawley (SD), M SD rat, Liver): 6340 ng/mL
AUC(0-t) (male, Sprague-Dawley, adipose, M SD rat, Adipose): 12200 ng·h/mL
AUC(0-t) (male, Sprague-Dawley, bladder, M SD rat, Bladder): 36200 ng·h/mL
AUC(0-t) (male, Sprague-Dawley, spleen, M SD rat, Spleen): 25700 ng·h/mL
AUC(0-t) (male, Sprague-Dawley, testis, M SD rat, Testis): 5090 ng·h/mL
Cmax [16]: 3900 ng/mL
Tmax [16]: 30 min
Cmax [17]: 6820 ng/mL
Tmax [17]: 33.6 min
AUC0-inf [17]: 36300 ng·h/mL
Tmax [18]: 30 min
AUC0-inf [18]: 8020 ng·h/mL
Cmax [19]: 6860 ng/mL
Tmax [19]: 30 min
Cmax [20]: 318 ng/mL
Tmax [20]: 480 min
Cmax [21]: 28900 ng/mL
Tmax [21]: 30 min
Cmax (male, M SD rat, Bone Marrow): 4530 ng/mL
Tmax (male, M SD rat, Liver): 30 min
Cmax (male, M SD rat, Lung): 4410 ng/mL
Tmax (male, M SD rat, Lung): 30 min
Cmax (male, M SD rat, Plasma): 509 ng/mL
Tmax (male, M SD rat, Plasma): 180 min
AUC0-inf (male, M SD rat, Plasma): 2680 ng·h/mL
Cmax (male, M SD rat, Skin): 1460 ng/mL
